# Source: patent publication US20050107386A1, “Methods of treating diseases and disorders by targeting multiple kinases” (priority 2003, published 2005)
# System: HCT-116 cells
# Assay: SCID mouse/HCT-116 xenograft model
# Settings: for % Tumor Growth Inhibition: day 28; for TGD (500 mm^3): days to reach 500 mm^3; for TGD (1000 mm^3): days to reach 1000 mm^3
smiles,measurement,setting,value
"CCc1c2c(nc3ccc(OC(=O)N4CCC(N5CCCCC5)CC4)cc13)-c1cc3c(c(=O)n1C2)COC(=O)[C@]3(O)CC.Cl [Camptosar, reference compound]",TGD (days to reach 1000 mm^3),"Table 3, i.p. 25 mg/kg q4d",>12 days
same,% Tumor Growth Inhibition,"Table 3, i.p. 25 mg/kg q4d",95.4%
same,% Tumor Growth Inhibition,"Table 5, i.p. 2.5 mg/kg q4d",66%
same,TGD (500 mm^3),"Table 5, i.p. 2.5 mg/kg q4d",>6 days
same,TGD (1000 mm^3),"Table 5, i.p. 2.5 mg/kg q4d",>10 days
same,% Tumor Growth Inhibition,"Table 5, i.p. 10 mg/kg q4d",90%
same,TGD (500 mm^3),"Table 5, i.p. 10 mg/kg q4d",>13 days
same,TGD (1000 mm^3),"Table 5, i.p. 10 mg/kg q4d",>10 days
